Experimental data as given in the NIST ThermoML archive (doi:10.1016/j.jct.2010.04.013).

Assay: mn = molality of the nth substance listed, in mol/kg
Details: 101 kPa, Liquid; for mass density: Vibrating tube method; for speed of sound: Pulse-echo method

O=S(=O)([O-])C(F)(F)F.[Na+] [sodium trifluoromethanesulfonate] + C[S+](C)[O-]
Details | mass density, 293.15 K [kg/m3] | mass density, 298.15 K [kg/m3] | mass density, 303.15 K [kg/m3] | mass density, 313.15 K [kg/m3] | mass density, 323.15 K [kg/m3] | mass density, 333.15 K [kg/m3] | speed of sound, 298.15 K [m/s]
m1 = 0.02641 | 1102.59 | 1097.57 | 1092.55 | 1082.51 | 1072.47 | 1062.44 | –
m1 = 0.0331 | 1103.2 | 1098.17 | 1093.52 | 1083.11 | 1073.08 | 1063.05 | –
m1 = 0.04651 | 1104.41 | 1099.38 | 1094.37 | 1084.33 | 1074.31 | 1064.27 | 1482.7
m1 = 0.06041 | 1105.66 | 1100.64 | 1095.62 | 1085.59 | 1075.56 | 1065.53 | 1482.2
m1 = 0.0788 | 1107.34 | 1102.31 | 1097.29 | 1087.27 | 1077.24 | 1067.21 | 1481.6
m1 = 0.09603 | 1108.91 | 1103.88 | 1098.86 | 1088.84 | 1078.81 | 1068.79 | 1481
m1 = 0.1218 | 1111.26 | 1106.23 | 1101.22 | 1091.19 | 1081.17 | 1071.16 | 1480.1
m1 = 0.1568 | 1114.49 | 1109.45 | 1104.45 | 1094.42 | 1084.4 | 1074.39 | 1479
m1 = 0.1917 | 1117.71 | 1112.68 | 1107.66 | 1097.64 | 1087.62 | 1077.62 | 1477.6
m1 = 0.2205 | 1120.39 | 1115.36 | 1110.33 | 1100.32 | 1090.31 | 1080.3 | 1476.5
m1 = 0.2625 | 1124.33 | 1119.3 | 1114.27 | 1104.24 | 1094.22 | 1084.21 | 1475
m1 = 0.2925 | – | – | – | – | – | – | 1473.9

O=S(=O)([O-])C(F)(F)F.O=S(=O)([O-])C(F)(F)F.[Be+2] [beryllium 1,1,1-trifluoromethanesulfonate] + C[S+](C)[O-]
Details | mass density, 293.15 K [kg/m3] | mass density, 298.15 K [kg/m3] | mass density, 303.15 K [kg/m3] | mass density, 313.15 K [kg/m3] | mass density, 323.15 K [kg/m3] | mass density, 333.15 K [kg/m3] | speed of sound, 298.15 K [m/s]
m1 = 0.01855 | 1103.22 | 1098.21 | 1093.19 | 1083.18 | 1073.16 | 1063.14 | –
m1 = 0.0259 | 1104.42 | 1099.41 | 1094.4 | 1084.39 | 1074.38 | 1064.37 | 1484.1
m1 = 0.03349 | 1105.65 | 1100.64 | 1095.64 | 1085.64 | 1075.64 | 1065.64 | 1484.1
m1 = 0.0433 | 1107.25 | 1102.25 | 1097.25 | 1087.27 | 1077.27 | 1067.29 | 1484.1
m1 = 0.0531 | 1108.84 | 1103.84 | 1098.85 | 1088.88 | 1078.9 | 1068.92 | 1484.1
m1 = 0.06815 | 1111.3 | 1106.31 | 1101.33 | 1091.37 | 1081.41 | 1071.46 | 1484.1
m1 = 0.08651 | 1114.3 | 1109.32 | 1104.35 | 1094.41 | 1084.48 | 1074.55 | 1484.1
m1 = 0.1051 | 1117.36 | 1112.4 | 1107.44 | 1097.52 | 1087.61 | 1077.69 | 1484.1
m1 = 0.1237 | 1120.43 | 1115.48 | 1110.52 | 1100.63 | 1090.75 | 1080.86 | 1484.1
m1 = 0.1446 | 1123.89 | 1118.95 | 1114.01 | 1104.14 | 1094.27 | 1084.41 | 1484.1
m1 = 0.1621 | 1126.82 | 1121.88 | 1116.95 | 1107.09 | 1097.24 | 1087.39 | 1484.1
